Results: patent US20220089575A1, “FARNESOID X RECEPTOR AGONISTS AND USES THEREOF” (Metacrine, Inc., priority 2017, published 2022)

Target: T1, hFXR (Homo sapiens, UniProt Q96RI1)
T1 construct: expressed in transfected cells; host or cells: CV-1 cells
T1 sequence (Q96RI1 1-486): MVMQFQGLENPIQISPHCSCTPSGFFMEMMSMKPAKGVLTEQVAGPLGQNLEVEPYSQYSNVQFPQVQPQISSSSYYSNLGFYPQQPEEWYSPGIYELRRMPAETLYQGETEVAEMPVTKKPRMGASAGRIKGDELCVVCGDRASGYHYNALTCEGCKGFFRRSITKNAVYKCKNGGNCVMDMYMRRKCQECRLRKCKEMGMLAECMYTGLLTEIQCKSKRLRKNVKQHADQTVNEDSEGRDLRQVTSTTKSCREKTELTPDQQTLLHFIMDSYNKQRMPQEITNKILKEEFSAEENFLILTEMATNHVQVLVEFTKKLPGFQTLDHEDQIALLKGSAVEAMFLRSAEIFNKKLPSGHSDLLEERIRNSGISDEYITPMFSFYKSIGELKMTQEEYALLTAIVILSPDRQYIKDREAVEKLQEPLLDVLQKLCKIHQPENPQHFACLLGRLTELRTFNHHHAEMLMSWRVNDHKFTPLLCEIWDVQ
T1 sequence (P19793 1-462 partner): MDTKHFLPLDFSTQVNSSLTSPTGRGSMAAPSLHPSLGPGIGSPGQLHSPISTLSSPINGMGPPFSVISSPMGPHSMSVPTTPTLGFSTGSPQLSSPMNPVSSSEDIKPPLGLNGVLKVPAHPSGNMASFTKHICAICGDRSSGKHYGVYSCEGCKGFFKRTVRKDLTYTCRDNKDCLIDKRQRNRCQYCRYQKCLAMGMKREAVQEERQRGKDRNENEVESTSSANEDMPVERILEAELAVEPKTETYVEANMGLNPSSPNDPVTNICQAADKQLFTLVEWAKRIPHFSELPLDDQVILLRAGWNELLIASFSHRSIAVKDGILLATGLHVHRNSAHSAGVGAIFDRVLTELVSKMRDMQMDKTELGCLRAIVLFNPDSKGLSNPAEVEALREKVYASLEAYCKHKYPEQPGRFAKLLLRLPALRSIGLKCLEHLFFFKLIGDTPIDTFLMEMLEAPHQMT
Assay: In Vitro FXR Assay (TK): TK-ECRE-luc reporter in transfected CV-1 cells
Type: cell-based
Conditions: 18 hrs, luminescence, maximum efficacy of <25% of the Fexarmine control classified as '+'
Summary of the method: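 CV-1 cells in DMEM with 10% charcoal-stripped FBS were co-transfected with hFXR, hRXR, TK-ECRE-luc reporter and pCMX-YFP plasmids. After 18 h, compounds serially diluted in DMSO were added for a further 18 h, then cells were lysed and luminescence read.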

SMILES | EC50 [nM]
CNC(=O)O[C@H]1CC[C@H](C(=O)N(C[C@H]2CC[C@H](c3ccc(OC)c(C)c3)CC2)c2cccc(-c3cnn(C(C)C)c3)c2)CC1 [Compound 5.10, trans-4-((3-(1-Isopropyl-1H-pyrazol-4-yl)phenyl)((trans-4-(4-methoxy-3-methylphenyl)cyclohexyl)methyl)carbamoyl)cyclohexyl methylcarbamate] | ≤ 250
COc1ccc([C@H]2CC[C@H](CN(c3cccc(-c4cnc(C5CC5)s4)c3)C(=O)[C@H]3CC[C@H](CC(=O)O)CC3)CC2)nc1C [Compound 20.03, 2-(trans-4-((3-(2-Cyclopropylthiazol-5-yl)phenyl)((trans-4-(5-methoxy-6-methylpyridin-2-yl)cyclohexyl)methyl)carbamoyl)cyclohexyl)acetic acid] | ≤ 250
COc1ccc([C@H]2CC[C@H](CN(c3cccc(-c4cnn(C5CC5)c4)c3)C(=O)[C@H]3CC[C@H](OC(=O)NCCN(C)C(=O)OC(C)(C)C)CC3)CC2)cc1C [Compound 4.14, tert-Butyl (2-((((trans-4-((3-(1-cyclopropyl-1H-pyrazol-4-yl)phenyl)((trans-4-(4-methoxy-3-methylphenyl)cyclohexyl)methyl)carbamoyl)cyclohexyl)oxy)carbonyl)amino)ethyl)(methyl)carbamate] | ≤ 250
COc1ccc([C@H]2CC[C@H](CN(c3cc(-c4coc(C5CC5)n4)ccn3)C(=O)[C@H]3CC[C@H](OC(=O)N[C@H](C)CO)CC3)CC2)nc1C [Compound 6.94, trans-4-((4-(2-Cyclopropyloxazol-4-yl)pyridin-2-yl)((trans-4-(5-methoxy-6-methylpyridin-2-yl)cyclohexyl)methyl)carbamoyl)cyclohexyl ((R)-1-hydroxypropan-2-yl)carbamate] | ≤ 250
COc1ccc([C@H]2CC[C@H](CN(c3cccc(-c4cnn(C5CC5)c4)c3)C(=O)[C@H]3CC[C@H](OC(=O)NCCNC(C)=O)CC3)CC2)cc1C [Compound 26.23, trans-4-((3-(1-Cyclopropyl-1H-pyrazol-4-yl)phenyl)((trans-4-(4-methoxy-3-methylphenyl)cyclohexyl)methyl)carbamoyl)cyclohexyl (2-acetamidoethyl)carbamate] | ≤ 250
COc1ccc([C@H]2CC[C@H](CN(c3cccc(-c4cnn(C(C)C)c4)c3)C(=O)[C@H]3CC[C@H](OC(=O)NCCO)CC3)CC2)cc1C#N [Compound 6.20, trans-4-(((trans-4-(3-Cyano-4-methoxyphenyl)cyclohexyl)methyl)(3-(1-isopropyl-1H-pyrazol-4-yl)phenyl)carbamoyl)cyclohexyl (2-hydroxyethyl)carbamate] | ≤ 250
COc1ccc([C@H]2CC[C@H](CN(c3cc(-c4cnn(C(C)C)c4)ccn3)C(=O)[C@H]3CC[C@H](OC(=O)N4CC(CO)C4)CC3)CC2)cc1C#N [Compound 7.51, trans-4-(((trans-4-(3-Cyano-4-methoxyphenyl)cyclohexyl)methyl)(4-(1-isopropyl-1H-pyrazol-4-yl)pyridin-2-yl)carbamoyl)cyclohexyl 3-(hydroxymethyl)azetidine-1-carboxylate] | ≤ 250
COc1ccc([C@H]2CC[C@H](CN(c3cc(-c4coc(C5CC5)n4)ccn3)C(=O)[C@H]3CC[C@H](OC(=O)NCCO)CC3)CC2)nc1C [Compound 4.24, trans-4-((4-(2-Cyclopropyloxazol-4-yl)pyridine-2-yl)((trans-4-(5-methoxy-6-methylpyridin-2-yl)cyclohexyl)methyl)carbamoyl)cyclohexyl (2-hydroxyethyl)carbamate] | ≤ 250
COc1ncc(-c2cccc(N(C[C@H]3CC[C@H](c4ccc(OC)c(C)c4)CC3)C(=O)C34CCC(C(=O)O)(CC3)CC4)c2)s1 [Compound 17.02, 4-(((trans-4-(4-Methoxy-3-methylphenyl)cyclohexyl)methyl)(3-(2-methoxythiazol-5-yl)phenyl)carbamoyl)bicyclo[2.2.2]octane-1-carboxylic acid] | ≤ 250
COc1ncc(-c2cccc(N(C[C@H]3CC[C@H](c4ccc(OC)c(C)c4)CC3)C(=O)[C@H]3CC[C@H](C(=O)O)CC3)c2)s1 [Compound 17.01, trans-4-(((trans-4-(4-Methoxy-3-methylphenyl)cyclohexyl)methyl)(3-(2-methoxythiazol-5-yl)phenyl)carbamoyl)cyclohexanecarboxylic acid] | ≤ 250
COc1ccc([C@H]2CC[C@H](CN(c3cccc(-c4coc(C(C)C)n4)c3)C(=O)[C@H]3CC[C@H](OC(=O)NCCCO)CC3)CC2)nc1C [Compound 6.49, trans-4-((3-(2-Isopropyloxazol-4-yl)phenyl)((trans-4-(5-methoxy-6-methylpyridin-2-yl)cyclohexyl)methyl)carbamoyl)cyclohexyl (3-hydroxypropyl)carbamate] | ≤ 250
COc1ccc(C23CCC(CN(c4cccc(-c5cnn(C6CC6)c5)c4)C(=O)[C@H]4CC[C@H](NC(C)=O)CC4)(CC2)CC3)cc1C [Compound 26.07, trans-4-Acetamido-N-(3-(1-cyclopropyl-1H-pyrazol-4-yl)phenyl)-N-((4-(4-methoxy-3-methylphenyl)bicyclo[2.2.2]octan-1-yl)methyl)cyclohexanecarboxamide] | ≤ 250
COc1ccc([C@H]2CC[C@H](CN(c3cc(-c4coc(C5CC5)n4)ccn3)C(=O)[C@H]3CC[C@H](OC(=O)N(C)CC(C)O)CC3)CC2)nc1C (stereo partly drawn) [Compound 6.67, trans-4-((4-(2-Cyclopropyloxazol-4-yl)pyridin-2-yl)((trans-4-(5-methoxy-6-methylpyridin-2-yl)cyclohexyl)methyl)carbamoyl)cyclohexyl(2-hydroxypropyl)(methyl)carbamate] | ≤ 250
COc1ccc(C23CCC(CN(c4cccc(-c5cnc(C6CC6)s5)c4)C(=O)[C@H]4CC[C@H](C(=O)O)CC4)(CC2)CC3)cc1C [Compound 17.05, trans-4-((3-(2-Cyclopropylthiazol-5-yl)phenyl)((4-(4-methoxy-3-methylphenyl)bicyclo[2.2.2]octan-1-yl)methyl)carbamoyl) cyclohexanecarboxylic acid] | ≤ 250
COc1ccc([C@H]2CC[C@H](CN(c3cc(-c4coc(C5CC5)n4)ccn3)C(=O)[C@H]3CC[C@H](OC(=O)NC(C)(C)CO)CC3)CC2)nc1C [Compound 6.90, trans-4-((4-(2-Cyclopropyloxazol-4-yl)pyridin-2-yl)((trans-4-(5-methoxy-6-methylpyridin-2-yl)cyclohexyl)methyl)carbamoyl)cyclohexyl (1-hydroxy-2-methylpropan-2-yl)carbamate] | ≤ 250
COc1ccc([C@H]2CC[C@H](CN(c3cccc(-c4cnn(C5CC5)c4)c3)C(=O)[C@H]3CC[C@H](OC(N)=O)CC3)CC2)cc1C [Compound 1.06, trans-4-((3-(1-Cyclopropyl-1H-pyrazol-4-yl)phenyl)((trans-4-(4-methoxy-3-methylphenyl)cyclohexyl)methyl)carbamoyl)cyclohexyl carbamate] | ≤ 250
COc1ccc([C@H]2CC[C@H](CN(c3cccc(-c4cnn(C5CC5)c4)c3)C(=O)[C@H]3CC[C@H](NC(=O)CNS(C)(=O)=O)CC3)CC2)cc1C [Compound 31.03, trans-N-(3-(1-Cyclopropyl-1H-pyrazol-4-yl)phenyl)-N-((trans-4-(4-methoxy-3-methylphenyl)cyclohexyl)methyl)-4-(2-(methylsulfonamido)acetamido) cyclohexane carboxamide] | ≥ 1000
COc1ccc([C@H]2CC[C@H](CN(c3cc(-c4cnc(C(C)C)s4)ccn3)C(=O)[C@H]3CC[C@H](OC(=O)N4CC(O)C4)CC3)CC2)nc1C [Compound 7.07, trans-4-((4-(2-Isopropylthiazol-5-yl)pyridin-2-yl)((trans-4-(5-methoxy-6-methylpyridin-2-yl)cyclohexyl)methyl)carbamoyl)cyclohexyl 3-hydroxyazetidine-1-carboxylate] | ≤ 250
COc1ccc([C@H]2CC[C@H](CN(c3cccc(-c4cnc(C5CC5)s4)c3)C(=O)[C@H]3CC[C@H](OC(=O)N4CC(O)C4)CC3)CC2)cc1C [Compound 7.02, trans-4-((3-(2-Cyclopropylthiazol-5-yl)phenyl)((trans-4-(4-methoxy-3-methylphenyl)cyclohexyl)methyl)carbamoyl)cyclohexyl 3-hydroxyazetidine-1-carboxylate] | ≤ 250
COc1ccc([C@H]2CC[C@H](CN(c3cc(-c4cnn(C(C)C)c4)ccn3)C(=O)[C@H]3CC[C@H](OC(=O)N4CCN(C)CC4)CC3)CC2)cc1C#N [Compound 6.38, trans-4-(((trans-4-(3-Cyano-4-methoxyphenyl)cyclohexyl)methyl)(4-(1-isopropyl-1H-pyrazol-4-yl)pyridin-2-yl)carbamoyl)cyclohexyl 4-methylpiperazine-1-carboxylate] | ≤ 250
